US8937072B2, “Substituted cyanoaniline compounds, preparation and use thereof” (Sinochem Corporation, priority 2011, dated 2015)
Read-outs that look alike come from different tables or passages of the source.

Tests used:
[1] = system: rice blast; test: microbe, parasite or virus in culture; format: cell-based; settings: for the inhibition rate against rice blast (%) 0.03 mg/L: Table 21, 0.03 mg/L; for the inhibition rate against rice blast (%) 0.1 mg/L: Table 21, 0.1 mg/L; for the inhibition rate against rice blast (%) 0.3 mg/L: Table 21, 0.3 mg/L; for inhibition rate against rice blast: in vitro
[2] = system: corn rust; test: Protectant activity in vivo (whole plant) against corn rust
Experimental: (§1) The method is as followed: The whole plant is used in this test. The compound is dissolved in a proper solvent to get mother solution. The proper solvent is selected from acetone, methanol, DMF and so on according to their dissolving capability to the sample. The volume rate of solvent and testing solution (v/v) is equal to or less than 5%. The mother solution is diluted with water containing 0.1% tween-80 to get the testing solution whose concentration is designed. The testing solution is sprayed to the host plant by a special plant sprayer. The plant is inoculated with fungus after 24 hours. According to the infecting characteristic of fungus, the plant is stored in a humidity chamber and then transferred into greenhouse after infection is finished. And the other plants are placed in greenhouse directly. The activity of compound is obtained by eyeballing after 7 days in common.

[3] = system: cucumber downy mildew; test: Protectant activity in vivo (whole plant) against cucumber downy mildew
Experimental: as §1

[4] = system: cucumber gray mold; test: Activity in vitro (96-well, High Through Put): inhibition rate against cucumber gray mold; format: cell-based
Experimental: The method is as followed: High Through Put is used in the test. The compound is dissolved in a proper solvent to become a testing solution whose concentration is designed. The solvent is selected from acetone, methanol, DMF and so on according to their dissolving capability to the sample. In a no animalcule condition, the testing solution and pathogens suspension are added into the cells of 96 cells culture board, which then should be placed in the constant temperature box. 24 hours later, pathogen germination or growth can be investigated by eyeballing, and the activity in vitro of the compound is evaluated based on germination or growth of control treatment.

Compound: N#Cc1c(Cl)c(Cl)c(Nc2c(Cl)cc([N+](=O)[O-])cc2Br)c(Cl)c1C#N [Compound A-46]
- the inhibition rate against rice blast (%) 0.03 mg/L [1]: 100%
- the inhibition rate against rice blast (%) 0.1 mg/L [1]: 100%
- the inhibition rate against rice blast (%) 0.3 mg/L [1]: 100%
- the protectant activity (%) against corn rust ([2]; 6.25 mg/L): 75%
- the protectant activity (%) against corn rust ([2]; 25 mg/L): 85%
- the protectant activity (%) against corn rust ([2]; 100 mg/L): 95%
- the protectant activity (%) against corn rust ([2]; 400 mg/L): 100%
- protectant activity against corn rust in vivo ([2]; dose 400 mg/L): 100%

Compound: N#Cc1c(Cl)c(Cl)c(Nc2ccc(C(F)(F)F)cc2Cl)c(C#N)c1Cl [Compound B-28]
- the inhibition rate against rice blast (%) 0.03 mg/L [1]: 80%
- the inhibition rate against rice blast (%) 0.1 mg/L [1]: 100%
- the inhibition rate against rice blast (%) 0.3 mg/L [1]: 100%
- the protectant activity (%) against cucumber downy mildew ([3]; 12.5 mg/L): 20%
- the protectant activity (%) against cucumber downy mildew ([3]; 25 mg/L): 80%
- the protectant activity (%) against cucumber downy mildew ([3]; 50 mg/L): 98%
- the protectant activity (%) against cucumber downy mildew ([3]; 100 mg/L): 100%
- protectant activity against cucumber downy mildew in vivo ([3]; dose 50 mg/L): 98%
- protectant activity against cucumber downy mildew in vivo ([3]; dose 100 mg/L): 100%
- protectant activity against cucumber downy mildew in vivo ([3]; dose 400 mg/L): 100%

Compound: N#Cc1c(Cl)c(Cl)c(Nc2cc(C(F)(F)F)ccc2F)c(C#N)c1Cl [Compound B-30]
- the inhibition rate against rice blast (%) 0.03 mg/L [1]: 0%
- the inhibition rate against rice blast (%) 0.1 mg/L [1]: 50%
- the inhibition rate against rice blast (%) 0.3 mg/L [1]: 100%

Compound: N#Cc1c(Cl)c(Cl)c(Nc2ccc(Cl)cc2[N+](=O)[O-])c(C#N)c1Cl [Compound B-39]
- the inhibition rate against rice blast (%) 0.03 mg/L [1]: 0%
- the inhibition rate against rice blast (%) 0.1 mg/L [1]: 80%
- the inhibition rate against rice blast (%) 0.3 mg/L [1]: 100%
- protectant activity against cucumber downy mildew in vivo ([3]; dose 400 mg/L): 100%

Compound: N#Cc1cc(Cl)c(Nc2c(Cl)c(Cl)c(C#N)c(Cl)c2C#N)c(Cl)c1 [Compound B-51]
- the inhibition rate against rice blast (%) 0.03 mg/L [1]: 0%
- the inhibition rate against rice blast (%) 0.1 mg/L [1]: 50%
- the inhibition rate against rice blast (%) 0.3 mg/L [1]: 100%
- the inhibition rate against cucumber gray mold (%) ([4]; 0.9 mg/L): 80%
- the inhibition rate against cucumber gray mold (%) ([4]; 2.8 mg/L): 80%
- the inhibition rate against cucumber gray mold (%) ([4]; 8.3 mg/L): 100%

Compound: COC(=O)c1cc(Cl)c(Nc2c(Cl)c(Cl)c(C#N)c(Cl)c2C#N)c(Cl)c1 [Compound B-62]
- the inhibition rate against rice blast (%) 0.03 mg/L [1]: 0%
- the inhibition rate against rice blast (%) 0.1 mg/L [1]: 80%
- the inhibition rate against rice blast (%) 0.3 mg/L [1]: 100%
- the protectant activity (%) against corn rust ([2]; 6.25 mg/L): 0%
- the protectant activity (%) against corn rust ([2]; 25 mg/L): 30%
- the protectant activity (%) against corn rust ([2]; 100 mg/L): 60%
- the protectant activity (%) against corn rust ([2]; 400 mg/L): 100%
- protectant activity against corn rust in vivo ([2]; dose 400 mg/L): 100%

Compound: N#Cc1c(Cl)c(Cl)c(Nc2c(Cl)c(Cl)c(C#N)c(Cl)c2C#N)c(C#N)c1Cl [Compound B-69]
- inhibition rate against rice blast ([1]; dose 8.3 mg/L): 80%
- protectant activity against cucumber downy mildew in vivo ([3]; dose 400 mg/L): 100%
- protectant activity against corn rust in vivo ([2]; dose 400 mg/L): 100%

Compound: CN(C)c1c(Cl)c(Nc2c(Cl)cc([N+](=O)[O-])cc2Cl)c(C#N)c(Cl)c1C#N [Compound B-73]
- the inhibition rate against rice blast (%) 0.03 mg/L [1]: 0%
- the inhibition rate against rice blast (%) 0.1 mg/L [1]: 0%
- the inhibition rate against rice blast (%) 0.3 mg/L [1]: 80%
- inhibition rate against rice blast ([1]; dose 0.3 mg/L): 80%
- the protectant activity (%) against cucumber downy mildew ([3]; 25 mg/L): 50%
- the protectant activity (%) against cucumber downy mildew ([3]; 50 mg/L): 100%
- the protectant activity (%) against cucumber downy mildew ([3]; 100 mg/L): 100%
- protectant activity against cucumber downy mildew in vivo ([3]; dose 50 mg/L): 100%
- protectant activity against cucumber downy mildew in vivo ([3]; dose 100 mg/L): 100%
- protectant activity against cucumber downy mildew in vivo ([3]; dose 400 mg/L): 100%
- the protectant activity (%) against corn rust ([2]; 6.25 mg/L): 30%
- the protectant activity (%) against corn rust ([2]; 25 mg/L): 70%
- the protectant activity (%) against corn rust ([2]; 100 mg/L): 100%
- the protectant activity (%) against corn rust ([2]; 400 mg/L): 98%
- protectant activity against corn rust in vivo ([2]; dose 100 mg/L): 100%
- protectant activity against corn rust in vivo ([2]; dose 400 mg/L): 100%

Compound: N#Cc1c(F)c(F)c(Nc2ccc(C(F)(F)F)cc2Cl)c(C#N)c1F [Compound B-92]
- inhibition rate against rice blast ([1]; dose 0.3 mg/L): 80%
- protectant activity against cucumber downy mildew in vivo ([3]; dose 50 mg/L): 98%
- protectant activity against cucumber downy mildew in vivo ([3]; dose 100 mg/L): 100%
- protectant activity against cucumber downy mildew in vivo ([3]; dose 400 mg/L): 100%
- protectant activity against corn rust in vivo ([2]; dose 100 mg/L): 100%
- protectant activity against corn rust in vivo ([2]; dose 400 mg/L): 100%

Compound: N#Cc1c(Cl)c(Cl)c(Nc2nc(Cl)c(Cl)cc2Cl)c(C#N)c1Cl [Compound B-128]
- the inhibition rate against rice blast (%) 0.03 mg/L [1]: 100%
- the inhibition rate against rice blast (%) 0.1 mg/L [1]: 100%
- the inhibition rate against rice blast (%) 0.3 mg/L [1]: 100%
- protectant activity against cucumber downy mildew in vivo ([3]; dose 50 mg/L): 98%
- protectant activity against cucumber downy mildew in vivo ([3]; dose 100 mg/L): 100%
- protectant activity against cucumber downy mildew in vivo ([3]; dose 400 mg/L): 100%

Compound: N#Cc1c(Cl)c(Cl)c(Nc2cc(Cl)cnc2Cl)c(C#N)c1Cl [Compound B-133]
- the inhibition rate against rice blast (%) 0.03 mg/L [1]: 100%
- the inhibition rate against rice blast (%) 0.1 mg/L [1]: 100%
- the inhibition rate against rice blast (%) 0.3 mg/L [1]: 100%
- the protectant activity (%) against cucumber downy mildew ([3]; 12.5 mg/L): 95%
- the protectant activity (%) against cucumber downy mildew ([3]; 25 mg/L): 100%
- the protectant activity (%) against cucumber downy mildew ([3]; 50 mg/L): 100%
- the protectant activity (%) against cucumber downy mildew ([3]; 100 mg/L): 100%
- protectant activity against cucumber downy mildew in vivo ([3]; dose 6.25 mg/L): 80%
- protectant activity against cucumber downy mildew in vivo ([3]; dose 25 mg/L): 100%
- protectant activity against cucumber downy mildew in vivo ([3]; dose 50 mg/L): 100%
- protectant activity against cucumber downy mildew in vivo ([3]; dose 100 mg/L): 100%

Compound: COc1ccc(Nc2c(Cl)c(C#N)c(Cl)c(Cl)c2C#N)cc1 [Compound C-14]
- inhibition rate against rice blast ([1]; dose 8.3 mg/L): 80%

Compound: N#Cc1c(Cl)c(Cl)c(C#N)c(Nc2c(Cl)cc([N+](=O)[O-])cc2Br)c1Cl [Compound C-49]
- the inhibition rate against rice blast (%) 0.03 mg/L [1]: 100%
- the inhibition rate against rice blast (%) 0.1 mg/L [1]: 100%
- the inhibition rate against rice blast (%) 0.3 mg/L [1]: 100%
- the protectant activity (%) against corn rust ([2]; 6.25 mg/L): 50%
- the protectant activity (%) against corn rust ([2]; 25 mg/L): 80%
- the protectant activity (%) against corn rust ([2]; 100 mg/L): 90%
- the protectant activity (%) against corn rust ([2]; 400 mg/L): 100%
- protectant activity against corn rust in vivo ([2]; dose 400 mg/L): 100%

Compound: COc1ccc(Nc2c(F)c(C#N)c(F)c(F)c2C#N)cc1 [Compound C-68]
- inhibition rate against rice blast ([1]; dose 8.3 mg/L): 80%

Compound: N#Cc1c(Cl)c(Cl)c(C#N)c(Nc2cc(Cl)cnc2Cl)c1Cl [Compound C-118]
- the inhibition rate against rice blast (%) 0.03 mg/L [1]: 100%
- the inhibition rate against rice blast (%) 0.1 mg/L [1]: 100%
- the inhibition rate against rice blast (%) 0.3 mg/L [1]: 100%
- protectant activity against cucumber downy mildew in vivo ([3]; dose 400 mg/L): 100%

Compound: N#Cc1c(Cl)c(Cl)c(C#N)c(Nc2c(Cl)cncc2Cl)c1Cl [Compound C-124]
- the inhibition rate against rice blast (%) 0.03 mg/L [1]: 100%
- the inhibition rate against rice blast (%) 0.1 mg/L [1]: 100%
- the inhibition rate against rice blast (%) 0.3 mg/L [1]: 100%
- protectant activity against cucumber downy mildew in vivo ([3]; dose 50 mg/L): 100%
- protectant activity against cucumber downy mildew in vivo ([3]; dose 100 mg/L): 100%
- protectant activity against cucumber downy mildew in vivo ([3]; dose 400 mg/L): 100%

Compound: N#Cc1c(Cl)c(Cl)c(C#N)c(Nc2ncccn2)c1Cl [Compound C-126]
- inhibition rate against rice blast ([1]; dose 8.3 mg/L): 80%
- protectant activity against cucumber downy mildew in vivo ([3]; dose 400 mg/L): 100%

Compound: COc1ccc(Nc2c(F)c(F)c(C#N)c(C#N)c2F)c(OC)c1 [KC27]
- pest or weed control at 12.5 µg/mL ([3]; Cucumis sativus, 168 h, 12.5 mg/L): 0%
- pest or weed control at 25 µg/mL ([3]; Cucumis sativus, 168 h, 25 mg/L, read-out: the protectant activity (%) against cucumber downy mildew): 0%
- pest or weed control at 50 µg/mL ([3]; Cucumis sativus, 168 h, 50 mg/L, read-out: the protectant activity (%) against cucumber downy mildew): 0%
- pest or weed control at 100 µg/mL ([3]; Cucumis sativus, 168 h, 100 mg/L, read-out: the protectant activity (%) against cucumber downy mildew): 0%
- pest or weed control at 400 µg/mL ([3]; Cucumis sativus, 168 h, dose 400 mg/L): 0%
- inhibition at 0.3 µg/mL ([4]; 0.3 mg/L): 0%
- inhibition at 0.9 µg/mL ([4]; 0.9 mg/L, read-out: the inhibition rate against cucumber gray mold (%)): 0%
- inhibition at 2.8 µg/mL ([4]; 2.8 mg/L, read-out: the inhibition rate against cucumber gray mold (%)): 0%
- inhibition at 8.3 µg/mL ([4]; 8.3 mg/L, read-out: the inhibition rate against cucumber gray mold (%)): 0%
- inhibition at 25 µg/mL ([4]; in vitro, dose 25 mg/L): 0%
- pest or weed control at 6.25 µg/mL ([2]; Zea mays, 168 h, 6.25 mg/L): 0%
- pest or weed control at 25 µg/mL ([2]; Zea mays, 168 h, 25 mg/L): 0%
- pest or weed control at 100 µg/mL ([2]; Zea mays, 168 h, 100 mg/L): 0%
- pest or weed control at 400 µg/mL ([2]; Zea mays, 168 h, 400 mg/L, read-out: the protectant activity (%) against corn rust): 0%
- pest or weed control at 400 µg/mL ([2]; Zea mays, 168 h, dose 400 mg/L, read-out: protectant activity against corn rust in vivo): 0%

Compound: O=[N+]([O-])c1cc(C(F)(F)F)c(Cl)c([N+](=O)[O-])c1Nc1ncc(C(F)(F)F)cc1Cl [fluazinam]
- inhibition at 0.03 µg/mL ([1]; Pyricularia oryzae, read-out: the inhibition rate against rice blast (%) 0.03 mg/L): 50%
- inhibition at 0.1 µg/mL ([1]; Pyricularia oryzae, read-out: the inhibition rate against rice blast (%) 0.1 mg/L): 80%
- inhibition at 0.3 µg/mL ([1]; Pyricularia oryzae, read-out: the inhibition rate against rice blast (%) 0.3 mg/L): 100%
